Data reported in PubChem BioAssay (NCI).
Where “and” joins values, the source holds several entries; their conditions need not be identical. Equal entries are not always repeated.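 Each compound was tested at five concentrations against cells in 96-well plates for 48 hours. Abbreviation: GI50, concentration required for 50% inhibition of growth. The concentration for full growth arrest is given as TGI.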

Legend:
Assay in all cases: NCI anticancer screen, dose series, 48 h
[1] = tested on: OVCAR-4 ovarian
[2] = tested on: OVCAR-8 ovarian
[3] = tested on: UACC-62 melanoma
[4] = tested on: SW-620 colon
[5] = tested on: NCI-H460 lung
[6] = tested on: HCC-2998 colon
[7] = tested on: UO-31 renal
[8] = tested on: SN12C renal
[9] = tested on: A498 renal
[10] = tested on: HOP-92 NSCLC

`Nc1ncn(C2C=C(CO)C(O)C2O)c(=O)n1` (configuration not stated) was tested, and the TGI [1] was > 100 µM, the TGI [2] was > 100 µM and the TGI [3] was > 100 µM. The TGI [4] was > 100 µM, the TGI [5] was > 100 µM and the TGI [6] was > 100 µM. For the same compound, the TGI [7] was > 100 µM, the TGI [8] was > 100 µM and the TGI [9] was > 100 µM.

In the case of `COC(=O)C12CC3CC(C1)CC(C(=O)OC)(C3)C2`, the TGI [1] is reported as > 100 µM, the TGI [2] is reported as > 100 µM and the TGI [3] is reported as > 100 µM. For the same compound, the TGI [4] was > 100 µM, the TGI [5] was > 100 µM and the TGI [6] was > 100 µM. The TGI [7] was > 100 µM, the TGI [8] was > 100 µM and the TGI [10] was > 100 µM. For the same compound, the TGI [9] was > 100 µM.

In the case of `CC[O-].CC[O-].O=C1C(c2ccccc2)=C([O-])c2ccccc21.O=C1C(c2ccccc2)=C([O-])c2ccccc21.[Ti+4]`, the GI50 [1] is reported as > 100 µM, the TGI [1] is reported as > 100 µM and the GI50 [2] is reported as > 100 µM. The TGI [2] was > 100 µM, the GI50 [3] was 72.6 µM and the TGI [3] was > 100 µM. The GI50 [4] was > 100 µM, the TGI [4] was > 100 µM and the GI50 [5] was > 100 µM. For the same compound, the TGI [5] was > 100 µM, the GI50 [6] was > 100 µM and the TGI [6] was > 100 µM. The GI50 [8] was > 100 µM, the TGI [8] was > 100 µM and the GI50 [10] was > 100 µM. For the same compound, the TGI [10] was > 100 µM.

In the case of `COc1ccc2c(c1)CCc1[nH]c3ccccc3c1CCCC2`, the TGI [1] is reported as > 10 µM, the TGI [2] is reported as > 10 µM and the TGI [3] is reported as > 10 µM. The TGI [4] was > 10 µM, the TGI [6] was > 10 µM and the TGI [8] was > 10 µM. For the same compound, the TGI [10] was > 10 µM.

For `Cc1cc(-c2nnc(N)nc2-c2ccc(F)cc2)cc(Cl)n1`, the GI50 [1] was 97.3 µM, the TGI [1] was > 100 µM and the GI50 [2] was > 100 µM. For the same compound, the TGI [2] was > 100 µM, the GI50 [4] was > 100 µM and the TGI [4] was > 100 µM. For the same compound, the GI50 [5] was > 100 µM, the TGI [5] was > 100 µM and the GI50 [6] was > 100 µM. For the same compound, the TGI [6] was > 100 µM, the GI50 [7] was 24.3 µM and the TGI [7] was > 100 µM. For the same compound, the GI50 [8] was > 100 µM, the TGI [8] was > 100 µM and the GI50 [10] was 11.5 µM. For the same compound, the TGI [10] was > 100 µM, the GI50 [9] was 49 µM and the TGI [9] was > 100 µM.

In the case of `O=C([O][Hg][CH2]C1COCC([CH2][Hg][O]C(=O)c2ccccc2)O1)c1ccccc1` (configuration not stated), the GI50 [1] is reported as 14.4 µM, the TGI [1] is reported as 49.6 µM and the GI50 [2] is reported as 2.03 µM. For the same compound, the TGI [2] was 4.62 µM, the GI50 [3] was 16.4 µM and the TGI [3] was 32.4 µM. For the same compound, the GI50 [4] was 1.54 µM, the TGI [4] was 3.32 µM and the GI50 [5] was 20 µM. It also gave a TGI [5] of 42.5 µM, a GI50 [7] of 1.82 µM and a TGI [7] of 3.39 µM. It also gave a GI50 [8] of 7.68 µM, a TGI [8] of 32.2 µM and a GI50 [10] of 2.25 µM. The TGI [10] was 4.23 µM, the GI50 [9] was 17.1 µM and the TGI [9] was 31.2 µM.

Work on `CC(C)CNc1nc(-c2ccccc2)nc2ccccc12` yielded a GI50 [1] of 13.5 µM, a TGI [1] of 30 µM and a GI50 [2] of 15 µM. For the same compound, the TGI [2] was 31.8 µM, the GI50 [3] was 14.6 µM and the TGI [3] was 29.4 µM. The GI50 [5] was 17.2 µM, the TGI [5] was 41.1 µM and the GI50 [6] was 15.9 µM. For the same compound, the TGI [6] was 29.8 µM, the GI50 [7] was 17.3 µM and the TGI [7] was 50.5 µM. For the same compound, the GI50 [8] was 18.4 µM, the TGI [8] was 38.6 µM and the GI50 [10] was 12.3 µM. For the same compound, the TGI [10] was 28.6 µM, the GI50 [9] was 15.1 µM and the TGI [9] was 29.5 µM.

With `COc1ccc(C2=C(c3ccc(OC)c(OC)c3)C(=O)OC2)cc1` the GI50 [1] was > 58.4 µM, the TGI [1] was > 100 µM and the GI50 [2] was 0.0451 µM. For the same compound, the TGI [2] was > 100 µM, the GI50 [3] was < 0.01 µM and the TGI [3] was 13.2 µM. For the same compound, the TGI [4] was > 100 µM, the TGI [5] was > 100 µM and the GI50 [7] was 0.116 µM. For the same compound, the TGI [7] was > 85.9 µM, the GI50 [8] was 0.123 µM and the TGI [8] was > 82.1 µM. It also gave a GI50 [10] of 3.48 µM, a TGI [10] of 32.6 µM and a GI50 [9] of 0.0803 µM. It also gave a TGI [9] of 42.3 µM.

For `CCCN1CCN(c2ccc3nc(-c4ccc5nc(-c6cc(OC)ccc6OC)[nH]c5c4)[nH]c3c2)CC1`, the GI50 [1] was 1.98 µM, the TGI [1] was 3.85 µM and the GI50 [3] was 19 µM. It also gave a TGI [3] of 34.7 µM, a GI50 [4] of 1.86 µM and a TGI [4] of 3.57 µM. For the same compound, the GI50 [5] was 1.91 µM, the TGI [5] was 3.56 µM and the GI50 [6] was 1.8 µM. It also gave a TGI [6] of 3.25 µM, a GI50 [7] of 14.6 µM and a TGI [7] of 29.3 µM. It also gave a GI50 [8] of 16.3 µM, a TGI [8] of 32.8 µM and a GI50 [10] of 11 µM. For the same compound, the TGI [10] was 27 µM, the GI50 [9] was 15.6 µM and the TGI [9] was 30.4 µM.

For `Cc1cc(C)nc(NS(=O)(=O)c2ccc(Nc3c4ccc(Cl)cc4nc4c(C(=O)Nc5ccc(S(=O)(=O)N=C(N)N)cc5)cccc34)cc2)n1`, the TGI [1] was > 100 µM, the TGI [2] was > 100 µM and the TGI [3] was > 100 µM. The TGI [5] was > 100 µM, the TGI [6] was > 100 µM and the TGI [7] was > 100 µM. For the same compound, the TGI [8] was > 100 µM and the TGI [9] was > 100 µM.

In the case of `CC(C)C1CCC/C=C/C=C/C=C/C=C/C(OC2OC(C)C(O)C(N)C2O)CC2OC(O)(CC(O)CC(O)C(O)CCC(=O)O1)CC(O)C2C(=O)O` (configuration not stated), the TGI [2] is reported as > 52.5 µM, the TGI [3] is reported as > 52.5 µM and the TGI [4] is reported as > 52.5 µM. The TGI [7] was > 52.5 µM, the TGI [8] was > 52.5 µM and the TGI [10] was > 52.5 µM. The TGI [9] was > 52.5 µM.

With `CN(C)C1CCN(C(=O)c2ccc(NC(=O)Nc3ccc(-c4nc(N5CCOCC5)nc(N5CCOCC5)n4)cc3)cc2)CC1` the GI50 [1] was < 0.01 µM and 0.00776 µM and 0.0127 µM, the GI50 [2] was 0.0545 µM and 0.0926 µM and 0.437 µM and the GI50 [3] was 0.0233 µM and 0.0169 µM and 0.0125 µM. The TGI [3] was 0.109 µM and 0.121 µM and 0.127 µM, the GI50 [4] was 0.0346 µM and 0.0689 µM and 0.03 µM and the GI50 [5] was 0.029 µM and 0.0334 µM and 0.0608 µM. The GI50 [6] was 0.0118 µM and 0.024 µM and 0.0102 µM, the TGI [6] was 0.839 µM and 2.5 µM and 1.03 µM and the GI50 [8] was < 0.0129 µM and 0.0133 µM and 0.0208 µM. The TGI [8] was 13.1 µM and 2.5 µM and > 10 µM, the GI50 [10] was < 0.01 µM and 0.00627 µM and 0.0138 µM and the TGI [10] was 0.0288 µM and 0.0544 µM and 0.116 µM. For the same compound, the GI50 [9] was 0.0391 µM and 0.03 µM and 0.00566 µM and the TGI [9] was 0.282 µM and 0.154 µM and 0.0788 µM.

In the case of `CC[Si](CC)(CC)OC[C@]1([C@@H]2COC(C)(C)O2)CC=CC(=O)O1`, the GI50 [1] is reported as 85.8 µM, the TGI [1] is reported as > 100 µM and the GI50 [2] is reported as 26.4 µM. The TGI [2] was 91.8 µM, the GI50 [3] was 25.6 µM and the TGI [3] was > 100 µM. For the same compound, the GI50 [4] was 39.1 µM, the TGI [4] was > 100 µM and the GI50 [5] was 33.9 µM. For the same compound, the TGI [5] was > 100 µM, the GI50 [7] was 34.8 µM and the TGI [7] was > 100 µM. The GI50 [8] was 31.1 µM, the TGI [8] was > 100 µM and the GI50 [10] was 19.7 µM. The TGI [10] was > 100 µM, the GI50 [9] was 20.9 µM and the TGI [9] was 75.7 µM.

For `CC(=O)/C(=C\C1=CCCO1)C(=O)Nc1ccccc1C`, the TGI [1] was > 100 µM, the TGI [2] was > 100 µM and the TGI [3] was > 100 µM. For the same compound, the TGI [4] was > 100 µM, the TGI [5] was > 100 µM and the TGI [6] was > 100 µM. For the same compound, the TGI [7] was > 100 µM, the TGI [8] was > 100 µM and the TGI [10] was > 100 µM.

For `O=C1NC2CCC(C2)C1c1ccccc1` (configuration not stated), the TGI [1] was > 100 µM, the TGI [2] was > 100 µM and the TGI [3] was > 100 µM. The TGI [4] was > 100 µM, the TGI [5] was > 100 µM and the TGI [6] was > 100 µM. The TGI [7] was > 100 µM, the TGI [8] was > 100 µM and the TGI [9] was > 100 µM.

With `COc1cc2c(cc1OCCCCCCN1CCN(c3ncnc4ccccc34)CC1)N=CC1CCCN1C2=O` (configuration not stated) the GI50 [1] was 0.13 µM, the TGI [1] was 2.05 µM and the GI50 [2] was 0.188 µM. It also gave a GI50 [3] of 0.143 µM, a TGI [3] of 0.326 µM and a GI50 [4] of 0.0935 µM. The TGI [4] was 0.566 µM, the GI50 [5] was 0.11 µM and the TGI [5] was 0.728 µM. For the same compound, the GI50 [6] was 0.191 µM, the TGI [6] was 0.52 µM and the GI50 [8] was 0.155 µM. It also gave a TGI [8] of 6.47 µM, a GI50 [10] of 0.0456 µM and a TGI [10] of 0.408 µM. For the same compound, the GI50 [9] was 0.15 µM and the TGI [9] was 0.344 µM.
